In PMC4550830, “Pheromone binding proteins enhance the sensitivity of olfactory receptors to sex pheromones in Chilo suppressalis” (Scientific Reports, 2015):
pKd: −log10 of the molar value. “And” between values parts separate entries of the source, which are not always exact repeats. Equal entries are not always repeated. Blank lines part the entries; values can stand above or below the compound they belong to.

Columns and labels:
CsupPBP3 = biological target: T1, CsupPBP3 (Chilo suppressalis, UniProt F6K0S3); experiment: Fluorescence binding assay (1-NPN titration and competitive displacement), CsupPBP3; details: 2 μM protein in 50 mM Tris-HCl titrated with 1-NPN, triplicates
T1 sequence (F6K0S3 22-166): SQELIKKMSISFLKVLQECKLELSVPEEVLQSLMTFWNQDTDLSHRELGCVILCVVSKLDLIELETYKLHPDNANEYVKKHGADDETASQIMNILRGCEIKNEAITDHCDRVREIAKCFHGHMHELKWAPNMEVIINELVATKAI
Protocol: In order to measure the affinity of CsupPBP1–4 to the fluorescent probe N-phenyl-1-naphthylamine (1-NPN), a 2 μM solution of each CsupPBP in 50 mM Tris-HCl buffer was titrated with 1 mM 1-NPN in methanol to final concentrations of 2–16 μM. The affinities of CsupPBP1–4 to other ligands were measured in competitive binding assays, where a 2 μM solution of both CsupPBPs and 1-NPN was titrated with 1 mM methanol solutions of each lignd to final concentrations of 0.2–1.6 μM. The Prism software was used to analyse the data and plot the binding curves. The ability of ligand to compete with 1-NPN was measured in competitive binding assays, where a mixture of the protein and 1-NPN, both at the concentration of 2 μM were titrated with 0.1 mM or 1 mM solutions of each ligand to the final concentrations reported in the figures. Fluorescence intensities are reported as percent of the values measured in the absence of competitors. All experiments were performed in triplicates and mean values and standard errors are reported. Binding constants of competitors were calculated from the corresponding IC50 values using the equation: KD = [IC50]/1 + [1-NPN]/K1-NPN, [1-NPN] being the free concentration of 1-NPN and K1-NPN being the dissociation constant of the complex Protein/1-NPN.

CsupPR1/CsupOrco = experiment: Two-electrode voltage clamp recording from Xenopus oocytes coexpressing CsupPR1/CsupOrco; format: cell-based, Chilo suppressalis; details: ligand 10^−4 mol/L, each of the four CsupPBPs versus DMSO alone
Description: (§1) The ORFs encoding CsupPRs were amplified and cloned into pT7Ts vector using specific primers (Supplementary Table S1). The cRNAs of all CsupPRs were synthesized using mMESSAGE Mmachine T7 kit (Ambion, Austin, TX).
(§2) The entire coding region of each CsupOR was sub-cloned into the XhoI/NotI sites of pT7Ts vector (Invitrogen) (Kozak sequence added before the cutting site in forward primer). The cRNAs of all CsupPRs were synthesized using mMESSAGE Mmachine T7 kit (Ambion, Austin, TX).
(§3) Electrophysiological recordings were performed according to previously reported protocols. Mature healthy oocytes (stage V–VII) (Nasco, Salida, California) were treated with collagenase I(GIBCO, Carlsbad, CA) in washing buffer (96 mM NaCl, 2 mM KCl, 5 mM MgCl2, and 5 mM HEPES [pH = 7.6]) for about 1 h at room temperature. […]
(§4) Whole-cell currents were recorded from the injected Xenopus oocytes with a two-electrode voltage clamp. Odorant induced currents were recorded with an OC-725C oocyte clamp (Warner Instruments, Hamden, CT) at a holding potential of […]. […]
(§5) Data acquisition and analyses were carried out with Digidata 1440A and pCLAMP 10.2 software (Axon Instruments Inc., Union City, CA). Statistical comparison of responses of oocytes to the tested ligands and dose-response data were analysed by GraphPad Prism 5.0 (GraphPad Software Inc., San Diego, CA). […]

CsupPR2/CsupOrco = experiment: Two-electrode voltage clamp recording from Xenopus oocytes coexpressing CsupPR2/CsupOrco; format: cell-based, Chilo suppressalis
Description: as §1, §2
(§6) Electrophysiological recordings were performed according to previously reported protocols. Mature healthy oocytes (stage V–VII) (Nasco, Salida, California) were treated with collagenase I(GIBCO, Carlsbad, CA) in washing buffer (96 mM NaCl, 2 mM KCl, 5 mM MgCl2, and 5 mM HEPES [pH = 7.6]) for about 1 h at room temperature. After being cultured overnight at 18 °C, oocytes were microinjected with 27.6 ng CsupORs cRNA and 27.6 ng CsupOrco cRNA. After injection, oocytes were incubated for 4–7 days at 18 °C in 1X Ringer’s solution (96 mM NaCl, 2 mM KCl, 5 mM MgCl2, 0.8 mM CaCl2, and 5 mM HEPES [pH = 7.6]) supplemented with 5% dialysed horse serum, […].
(§7) Whole-cell currents were recorded from the injected Xenopus oocytes with a two-electrode voltage clamp. Odorant induced currents were recorded with an OC-725C oocyte clamp (Warner Instruments, Hamden, CT) at a holding potential of […]. All experiments on PR responses were performed in six replicates, those involving interactions with PBPs in four replicates.
(§8) Data acquisition and analyses were carried out with Digidata 1440A and pCLAMP 10.2 software (Axon Instruments Inc., Union City, CA). Statistical comparison of responses of oocytes to the tested ligands and dose-response data were analysed by GraphPad Prism 5.0 (GraphPad Software Inc., San Diego, CA).
(§9) Tested pheromone components and analogs were purchased from Nimrod Inc (Changzhou, China, purify 96%). they were dissolved in dimethyl sulfoxide (DMSO) to 1 M Stock solutions and stored at −20 °C. Before testing, the stock solutions were diluted with 1 X Ringer’s buffer (96 mM NaCl, 2 mM KCl, 5 mM MgCl2, 0.8 mM CaCl2 and 5 mM HEPES [pH = 7.6]).

CsupPR4/CsupOrco = experiment: Two-electrode voltage clamp recording from Xenopus oocytes coexpressing CsupPR4/CsupOrco; format: cell-based, Chilo suppressalis
Description: as §1, §2, §3, §4, §5

CsupPR6/CsupOrco = experiment: Two-electrode voltage clamp recording from Xenopus oocytes coexpressing CsupPR6/CsupOrco; format: cell-based, Chilo suppressalis; details: ligand 10^−4 mol/L; for Effect of PBPs on the response of PR6: each of the four CsupPBPs versus DMSO alone
Description: as §1, §2, §6, §7, §8, §9

[1] = ligand 10^−4 mol/L, each of the four CsupPBPs versus receptor alone

Structure (SMILES): c1ccc(Nc2cccc3ccccc23)cc1 [1-NPN, N-phenyl-1-naphthylamine]
pKd (CsupPBP3): ~5.52 and 5.51

Structure (SMILES): CCCC/C=C\CCCCCCCCO [Z9–14:OH]
Effect of PBPs on the response of PR1 (CsupPR1/CsupOrco): inhibitory effect
Effect of PBPs on the response of PR2 (CsupPR2/CsupOrco; [1]): inhibitory effect
Effect of PBPs on the response of PR4 (CsupPR4/CsupOrco; [1]): inhibitory effect
Effect of PBPs on the response of PR6 (CsupPR6/CsupOrco): inhibitory effect
Effect of PBPs on the response of PR6 (CsupPR6/CsupOrco; listed as 4): reduction of the signal

Structure (SMILES): CCCCCC/C=C\CCCCCCCC=O [Z9–16:Ald, (Z)-9-hexadecenal]
Inward current response of PR4 (CsupPR4/CsupOrco; ligand 0.1 mM, no PBP, n = 6): specifically tuned

Increase in sensitivity (EC50) of PR2 in the presence of PBP1 (CsupPR2/CsupOrco; dose-response with versus without PBP1): to minor extents
Increase in sensitivity (EC50) of PR2 in the presence of PBP2 (CsupPR2/CsupOrco; dose-response with versus without PBP2): more than one order of magnitude
Increase in sensitivity (EC50) of PR2 in the presence of PBP3 (CsupPR2/CsupOrco; dose-response with versus without PBP3): to minor extents
Change in sensitivity (EC50) of PR2 in the presence of PBP4 (CsupPR2/CsupOrco; dose-response with versus without PBP4): not affected
Structure (SMILES): CCCC/C=C\CCCCCCCCCC=O [Z11–16:Ald, (Z)-11-hexadecenal]
Response of PR6 in the presence of PBP4 compared with other PBPs (CsupPR6/CsupOrco; PBP4): more strongly activated
Effect of PBPs on the response of PR6 (CsupPR6/CsupOrco): increased
